Test results from US20220257713A1, “COMPOUND AND COMPOSITIONS FOR MULTITARGET TREATMENT OF TAU PROTEIN-RELATED DISORDERS” (FONDAZIONE IRCCS ISTITUTO NEUROLOGICO CARLO BESTA, priority 2019, published 2022).
Residues, ends and D or L forms follow the SMILES beside them.

How the values were obtained:
APPSwe/PS1DE9 = conditions: mouse, in vivo, 50 mg/kg
Experimental: FIG. 4. Mouse brain distribution of Aβ1-6A2V (D) peptide 2 hours after the last intranasal administration: A) Control and B) Treated Mice. FIG. 5. Effect of Aβ1-6A2V(D) on Aβ oligomer formation in the brain: biochemical assessment. APPSwe/PS1DE9 were treated with Aβ1-6A2V(D) at 50 mg/kg for five months. Control group was treated intranasally with PBS. A: Levels of Aβ aggregates in soluble and insoluble brain fractions after 2.5 months of treatment. B: Levels of Aβ aggregates in soluble and insoluble brain fractions after five months of treatment. * p<0.01; *** p<0.001. FIG. 6. Effect of Aβ1-6A2V(D) on Aβ deposits in mouse brain: neuropathological assessment. A: APPSwe/PS1DE9 were treated with Aβ1-6A2V(D) daily for five months at 50 mg/kg. Control group (CTRL) was treated intranasally with PBS. Amyloid burden measured by plaque count. ** p<0.01; *** p<0,001. B: Immunohistochemistry with the 4G8 anti-Aβ antibody. FIG. 7. Effect of Aβ1-6A2V(D) on synaptopathy. Subcellular fractionation of hippocampal homogenates from mice treated with Aβ1-6A2V(D) (right columns) or PBS (left columns). Western blot analysis with antibodies against synaptic receptors (NMDA-2A, GluN2B, GluA1 and GluA2) and scaffold protein (PSD95). The treatment with Aβ1-6A2V(D) preserved synaptic integrity. […]

[1] = mouse, in vivo, 16.7 mg/kg
Experimental: FIG. 3. […] Mice were sacrificed 4 (A), 24 (B) and 48 (C) hours after the last administration.
To this end, preliminarily wild-type mice were treated once a week for 4 weeks at a dose of 16.7 mg/kg. Animals were sacrificed 4, 24, 48 hours from the last intranasal delivery.

SMILES: CC(C)[C@@H](NC(=O)[C@H](N)CC(=O)O)C(=O)N[C@H](CCC(=O)O)C(=O)N[C@H](Cc1ccccc1)C(=O)N[C@H](CCCNC(=N)N)C(=O)N[C@H](Cc1c[nH]cn1)C(=O)O [Aβ1-6A2V(D)] (HELM PEPTIDE1{[dD].[dV].[dE].[dF].[dR].[dH]}$$$$V2.0; N-terminus and C-terminus assumed)
- Diffusion of the peptide in brain tissue (APPSwe/PS1DE9): consistent diffusion of the peptide in brain tissue
- Diffusion of the peptide in brain tissue [1]: consistent diffusion of the peptide in brain tissue
- Presence of the peptide in cerebral cortex 48 hours after last treatment [1]: can be still observed in the cerebral cortex
